Test results published in patent publication US20260250290A1 (BRISTOL-MYERS SQUIBB COMPANY, priority 2023, published 2026).

The molecules below were run against T1, full length SGK1 (Homo sapiens, UniProt O00141) (assay: SGK1 inhibition Assay A (Caliper LabChip electrophoretic separation of fluorescent peptide substrate and phosphorylated product)). Details: Assay A; 20 μM ATP, 40 min incubation; read-out: SGK1 IC50.
T1 construct: 125 μM full length SGK1 (Life Technologies Part #PR7358A); purchased Life Technologies PR7358A
T1 sequence (O00141 1-431): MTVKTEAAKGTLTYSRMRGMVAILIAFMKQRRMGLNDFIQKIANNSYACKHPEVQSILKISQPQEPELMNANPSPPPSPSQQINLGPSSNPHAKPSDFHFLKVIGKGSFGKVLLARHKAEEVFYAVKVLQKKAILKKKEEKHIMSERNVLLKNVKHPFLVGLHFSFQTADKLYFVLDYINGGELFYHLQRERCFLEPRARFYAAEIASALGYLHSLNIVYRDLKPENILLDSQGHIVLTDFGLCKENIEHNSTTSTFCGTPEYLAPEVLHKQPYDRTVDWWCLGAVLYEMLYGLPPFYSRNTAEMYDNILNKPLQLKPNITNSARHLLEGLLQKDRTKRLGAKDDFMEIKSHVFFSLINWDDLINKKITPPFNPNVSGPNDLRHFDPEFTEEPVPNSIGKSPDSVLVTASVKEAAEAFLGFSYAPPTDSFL
Type: biochemical
COc1ccc(-n2cc(OCCN(C)C)c(C(=O)N[C@@H]3CCCN(c4cc(-c5ccc(C#N)nc5)n5ncnc(N)c45)C3)n2)cc1 [Example 392] showed an IC50 of 151 nM.
Work on CC(=O)N1CC=C(c2cc(N3CCC[C@@H](NC(=O)c4sc(C(F)F)cc4C4CCNCC4)C3)c3c(N)ncnn23)C1 [Example 393E, (R)—N-(1-(7-(1-acetyl-2,5-dihydro-1H-pyrrol-3-yl)-4-aminopyrrolo[2,1-f][1,2,4]triazin-5-yl)piperidin-3-yl)-5-(difluoromethyl)-3-(piperidin-4-yl)thiophene-2-carboxamide] yielded an IC50 of 162 nM.
For CC(=O)N1CC=C(c2cc(N3CCC[C@@H](NC(=O)c4sc(C(F)F)cc4C4CCN(C)CC4)C3)c3c(N)ncnn23)C1 [Example 393], the IC50 was 197 nM.
With CC(=O)N1CC=C(c2cc(N3CCC[C@@H](NC(=O)c4sc(C(F)F)cc4C4CCN(C(C)C)CC4)C3)c3c(N)ncnn23)C1 [Example 394, (R)-N-(1-(7-(1-acetyl-2,5-dihydro-1H-pyrrol-3-yl)-4-aminopyrrolo[2,1-f][1,2,4]triazin-5-yl)piperidin-3-yl)-5-(difluoromethyl)-3-(1-isopropylpiperidin-4-yl)thiophene-2-] the IC50 was 249 nM.
Work on N#Cc1ccc(-c2cc(N3CCC[C@@H](NC(=O)c4sc(C(F)F)cc4C4CCNCC4)C3)c3c(N)ncnn23)cn1 [Example 395, (R)-N-(1-(4-amino-7-(6-cyanopyridin-3-yl)pyrrolo[2,1-f][1,2,4]triazin-5-yl)piperidin-3-yl)-5-(difluoromethyl)-3-(piperidin-4-yl)thiophene-2-carboxamide] yielded an IC50 of 210 nM.
Molecule CN1CCC(c2cc(C(F)F)sc2C(=O)N[C@@H]2CCCN(c3cc(-c4ccc(C#N)nc4)n4ncnc(N)c34)C2)CC1 [Example 396, (R)-N-(1-(4-amino-7-(6-cyanopyridin-3-yl)pyrrolo[2,1-f][1,2,4]triazin-5-yl)piperidin-3-yl)-5-(difluoromethyl)-3-(1-methylpiperidin-4-yl)thiophene-2-carboxamide] has an IC50 of 146 nM.
In the case of CC(C)N1CCC(c2cc(C(F)F)sc2C(=O)N[C@@H]2CCCN(c3cc(-c4ccc(C#N)nc4)n4ncnc(N)c34)C2)CC1 [Example 397, (R)-N-(1-(4-amino-7-(6-cyanopyridin-3-yl)pyrrolo[2,1-f][1,2,4]triazin-5-yl)piperidin-3-yl)-5-(difluoromethyl)-3-(1-isopropylpiperidin-4-yl)thiophene-2-carboxamide], the IC50 is reported as 134 nM.
CC(=O)N1CC=C(c2cc(N3CCC[C@@H](NC(=O)c4sc(C(F)F)cc4C4CCN(C)C4)C3)c3c(N)ncnn23)C1 (stereo partly drawn) [Example 398, N—((R)-1-(7-(1-acetyl-2,5-dihydro-1H-pyrrol-3-yl)-4-aminopyrrolo[2,1-f][1,2,4]triazin-5-yl)piperidin-3-yl)-5-(difluoromethyl)-3-(1-methylpyrrolidin-3-yl)thiophene-2-carboxamide] showed an IC50 of 246 nM.
Work on CC(=O)N1CC=C(c2cc(N3CCC[C@@H](NC(=O)c4sc(C(F)F)cc4C4CCN(C(C)C)C4)C3)c3c(N)ncnn23)C1 (stereo partly drawn) [Example 399, N-((R)-1-(7-(1-acetyl-2,5-dihydro-1H-pyrrol-3-yl)-4-aminopyrrolo[2,1-f][1,2,4]triazin-5-yl)piperidin-3-yl)-5-(difluoromethyl)-3-(1-isopropylpyrrolidin-3-yl)thiophene-2-carboxamide] yielded an IC50 of 310 nM.
With N#Cc1ccc(-c2cc(N3CCC[C@@H](NC(=O)c4sc(C(F)F)cc4C4CCNC4)C3)c3c(N)ncnn23)cn1 (stereo partly drawn) [Example 400, N-((R)-1-(4-amino-7-(6-cyanopyridin-3-yl)pyrrolo[2,1-f][1,2,4]triazin-5-yl)piperidin-3-yl)-5-(difluoromethyl)-3-(pyrrolidin-3-yl)thiophene-2-carboxamide] the IC50 was 299 nM.
For CN1CCC(c2cc(C(F)F)sc2C(=O)N[C@@H]2CCCN(c3cc(-c4ccc(C#N)nc4)n4ncnc(N)c34)C2)C1 (stereo partly drawn) [Example 401, N-((R)-1-(4-amino-7-(6-cyanopyridin-3-yl)pyrrolo [2,1-f][1,2,4]triazin-5-yl)piperidin-3-yl)-5-(difluoromethyl)-3-(1-methylpyrrolidin-3-yl)thiophene-2-carboxamide], the IC50 was 250 nM.
CN1CCC(c2cc(C(F)F)sc2C(=O)N[C@@H]2CCCN(c3cc(-c4ccc(C(N)=O)nc4)n4ncnc(N)c34)C2)C1 (stereo partly drawn) [Example 402, 5-(4-amino-5-((3R)-3-(5-(difluoromethyl)-3-(1-methylpyrrolidin-3-yl)thiophene-2-carboxamido)piperidin-1-yl)pyrrolo[2,1-f][1,2,4]triazin-7-yl)picolinamide] showed an IC50 of 219 nM.
In the case of CC(C)N1CCC(c2cc(C(F)F)sc2C(=O)N[C@@H]2CCCN(c3cc(-c4ccc(C#N)nc4)n4ncnc(N)c34)C2)C1 (stereo partly drawn) [Example 403, N-((R)-1-(4-amino-7-(6-cyanopyridin-3-yl)pyrrolo[2,1-f][1,2,4]triazin-5-yl)piperidin-3-yl)-5-(difluoromethyl)-3-(1-isopropylpyrrolidin-3-yl)thiophene-2-carboxamide], the IC50 is reported as 229 nM.
For CC(C)N1CCC(c2cc(C(F)F)sc2C(=O)N[C@@H]2CCCN(c3cc(-c4ccc(C(N)=O)nc4)n4ncnc(N)c34)C2)C1 (stereo partly drawn) [Example 404, 5-(4-amino-5-((3R)-3-(5-(difluoromethyl)-3-(1-isopropylpyrrolidin-3-yl)thiophene-2-carboxamido)piperidin-1-yl)pyrrolo[2,1-f][1,2,4]triazin-7-yl)picolinamide], the IC50 was 254 nM.
CC(=O)N1CC=C(c2cc(N3CCC[C@@H](NC(=O)c4sc(C(F)F)cc4C4CCNC4)C3)c3c(N)ncnn23)C1 (stereo partly drawn) [Example 405, N-((R)-1-(7-(1-acetyl-2,5-dihydro-1H-pyrrol-3-yl)-4-aminopyrrolo[2,1-f][1,2,4]triazin-5-yl)piperidin-3-yl)-5-(difluoromethyl)-3-(pyrrolidin-3-yl)thiophene-2-carboxamide] was tested, and the IC50 was 304 nM.
CC(=O)N1CC=C(c2cc(N3CCC[C@@H](NC(=O)c4sc(C(F)F)cc4C4CCN(C)C4)C3)c3c(N)ncnn23)C1 (stereo partly drawn) [Example 406, N-((R)-1-(7-(1-acetyl-2,5-dihydro-1H-pyrrol-3-yl)-4-aminopyrrolo[2,1-f][1,2,4]triazin-5-yl)piperidin-3-yl)-5-(difluoromethyl)-3-(1-methylpyrrolidin-3-yl)thiophene-2-carboxamide] gave an IC50 of 309 nM.
Molecule CC(=O)N1CC=C(c2cc(N3CCC[C@@H](NC(=O)c4sc(C(F)F)cc4C4CCN(C(C)C)C4)C3)c3c(N)ncnn23)C1 (stereo partly drawn) [Example 407, N-((R)-1-(7-(1-acetyl-2,5-dihydro-1H-pyrrol-3-yl)-4-aminopyrrolo[2,1-f][1,2,4]triazin-5-yl)piperidin-3-yl)-5-(difluoromethyl)-3-(1-isopropylpyrrolidin-3-yl)thiophene-2-carboxamide] has an IC50 of 322 nM.
For CCN(CC)CCOc1cc(C(F)F)sc1C(=O)N[C@@H]1CCCN(c2cc(C3=CCN(C(=O)OC)C3)n3ncnc(N)c23)C1 [Example 408, methyl (R)-3-(4-amino-5-(3-(3-(2-(diethylamino)ethoxy)-5-(difluoromethyl)thiophene-2-carboxamido)piperidin-1-yl)pyrrolo[2,1-f][1,2,4]triazin-7-yl)-2,5-dihydro-1H-pyrrole-1-carboxylate], the IC50 was 22 nM.
In the case of CCN(CC)CCOc1cc(C(F)F)sc1C(=O)N[C@@H]1CCCN(c2cc(C3=CCN(C(C)=O)C3)n3ncnc(N)c23)C1 [Example 409, (R)-N-(1-(7-(1-acetyl-2,5-dihydro-1H-pyrrol-3-yl)-4-aminopyrrolo[2,1-f][1,2,4]triazin-5-yl)piperidin-3-yl)-3-(2-(diethylamino)ethoxy)-5-(difluoromethyl) thiophene-2-carboxamide], the IC50 is reported as 24 nM.
With CCN(CC)CCOc1cc(C(F)F)sc1C(=O)N[C@@H]1CCCN(c2cc(-c3cncnc3)n3ncnc(N)c23)C1 [Example 410, (R)-N-(1-(4-amino-7-(pyrimidin-5-yl)pyrrolo[2,1-f] [1,2,4]triazin-5-yl)piperidin-3-yl)-3-(2-(diethylamino)ethoxy)-5-(difluoromethyl) thiophene-2-carboxamide] the IC50 was 198 nM.
COC(=O)N1CC=C(c2cc(N3CCC[C@@H](NC(=O)c4sc(C(F)F)cc4OC4CCN(C(C)=O)CC4)C3)c3c(N)ncnn23)C1 [Example 411, methyl (R)-3-(5-(3-(3-((1-acetylpiperidin-4-yl)oxy)-5-(difluoromethyl)thiophene-2-carboxamido)piperidin-1-yl)-4-aminopyrrolo[2,1-f][1,2,4]triazin-7-yl)-2,5-dihydro-1H-pyrrole-1-carboxylate] gave an IC50 of 5 nM.
Work on CC(=O)N1CCC(Oc2cc(C(F)F)sc2C(=O)N[C@@H]2CCCN(c3cc(C4=CCN(C(C)=O)C4)n4ncnc(N)c34)C2)CC1 [Example 412, (R)-N-(1-(7-(1-acetyl-2,5-dihydro-1H-pyrrol-3-yl)-4-aminopyrrolo[2,1-f][1,2,4]triazin-5-yl)piperidin-3-yl)-3-((1-acetylpiperidin-4-yl)oxy)-5-(difluoromethyl)thiophene-2-carboxamide] yielded an IC50 of 50 nM.
Molecule CC(=O)N1CCC(Oc2cc(C(F)F)sc2C(=O)N[C@@H]2CCCN(c3cc(-c4cncnc4)n4ncnc(N)c34)C2)CC1 [Example 413, (R)-3-((1-acetylpiperidin-4-yl)oxy)-N-(1-(4-amino-7-(pyrimidin-5-yl)pyrrolo[2,1-f][1,2,4]triazin-5-yl)piperidin-3-yl)-5-(difluoromethyl)thiophene-2-carboxamide] has an IC50 of 113 nM.
